For orientation: MIC means the lowest concentration found to suppress growth.

≈ marks a conversion by molar mass, not a printed value. Calls of active or inactive are those of the source. The rule behind the calls is not given here.

The first assay has as its system Micrococcus luteus. The experiment in a line: Antibacterial activity against Micrococcus luteus ATCC 4698 after 18 to 24 hrs. The note with it: NCTC 2665. The format is functional.
For the compound `CCn1cc(C(C)=O)c(=O)c2cc(N3CCCCC3)c(Cl)cc21`, the MIC worked out at 37.3 µg/mL (≈ 112 µM).
On the same count and under the same terms, next, `CCn1cc(C(C)=O)c(=O)c2cc(F)c(N3CCN(C(=O)OC(C)(C)C)CC3)cc21`: “inactive”; `CCn1cc(-c2csc(N)n2)c(=O)c2cc(N3CCN(C(=O)OC(C)(C)C)CC3)c(Cl)cc21`: 53.2 µg/mL (≈ 109 µM); `CCn1cc(-c2csc(N)n2)c(=O)c2cc(N3CCOCC3)c(Cl)cc21`: 128 µg/mL (≈ 327 µM).
Still for that read-out and setting: in the case of `CCn1cc(-c2csc(N)n2)c(=O)c2cc(F)c(N3CCCCC3)cc21` it was “inactive”; in that of `CCn1cc(-c2csc(N)n2)c(=O)c2cc(F)c(N3CCCC3)cc21`, 107 µg/mL (≈ 298 µM).

For the next assay, the system named is Staphylococcus aureus. The experiment in a line: Antibacterial activity against methicillin-resistant Staphylococcus aureus N315 after 18 to 24 hrs.
Details: not given
The format is functional.
With `CCn1cc(C(C)=O)c(=O)c2cc(N3CCCCC3)c(Cl)cc21`, the MIC was 128 µg/mL (≈ 385 µM).
Turning to `CCn1cc(C(C)=O)c(=O)c2cc(F)c(N3CCN(C(=O)OC(C)(C)C)CC3)cc21`, the minimum inhibitory concentration (MIC) was 64 µg/mL (≈ 153 µM).
Still for that read-out and setting: in the case of `CCn1cc(-c2csc(N)n2)c(=O)c2cc(N3CCN(C(=O)OC(C)(C)C)CC3)c(Cl)cc21` it was 32 µg/mL (≈ 65.3 µM).
On the same count and under the same terms, in the case of `CCn1cc(-c2csc(N)n2)c(=O)c2cc(N3CCOCC3)c(Cl)cc21` it was 255 µg/mL (≈ 653 µM); in that of `CCn1cc(-c2csc(N)n2)c(=O)c2cc(F)c(N3CCCCC3)cc21`, 53.3 µg/mL (≈ 143 µM).
On the same count and under the same terms, in the case of `CCn1cc(-c2csc(N)n2)c(=O)c2cc(F)c(N3CCCC3)cc21` it was 17.3 µg/mL (≈ 48.3 µM).

A further assay has as its system Staphylococcus aureus. Kind of assay: Antibacterial activity against Staphylococcus aureus ATCC 25923 after 18 to 24 hrs. It is filed as functional.
Details: not given
Take `CCn1cc(C(C)=O)c(=O)c2cc(N3CCCCC3)c(Cl)cc21`: 37.3 µg/mL (≈ 112 µM) was the least that counted as inhibitory (MIC).
On the same count and under the same terms, in the case of `CCn1cc(C(C)=O)c(=O)c2cc(F)c(N3CCN(C(=O)OC(C)(C)C)CC3)cc21` it was 16 µg/mL (≈ 38.3 µM).
Same read-out and setting: in the case of `CCn1cc(-c2csc(N)n2)c(=O)c2cc(N3CCN(C(=O)OC(C)(C)C)CC3)c(Cl)cc21` it was 128 µg/mL (≈ 261 µM); in that of `CCn1cc(-c2csc(N)n2)c(=O)c2cc(N3CCOCC3)c(Cl)cc21`, 0.8 µg/mL (≈ 2.05 µM); in that of `CCn1cc(-c2csc(N)n2)c(=O)c2cc(F)c(N3CCCCC3)cc21`, 64 µg/mL (≈ 172 µM).
On the same count and under the same terms, in the case of `CCn1cc(-c2csc(N)n2)c(=O)c2cc(F)c(N3CCCC3)cc21` it was 32 µg/mL (≈ 89.3 µM).

The test system of the next assay is Bacillus spizizenii. The experiment in a line: Antibacterial activity against Bacillus subtilis ATCC 6633 after 18 to 24 hrs. The format is functional.
Details: not given
On to `CCn1cc(C(C)=O)c(=O)c2cc(N3CCCCC3)c(Cl)cc21`, for which 35.4 µg/mL (≈ 106 µM) was the least that counted as inhibitory (MIC).
On the same count and under the same terms, in the case of `CCn1cc(C(C)=O)c(=O)c2cc(F)c(N3CCN(C(=O)OC(C)(C)C)CC3)cc21` it was 21.3 µg/mL (≈ 51 µM); in that of `CCn1cc(-c2csc(N)n2)c(=O)c2cc(N3CCN(C(=O)OC(C)(C)C)CC3)c(Cl)cc21`, 21.3 µg/mL (≈ 43.5 µM).
Regarding `CCn1cc(-c2csc(N)n2)c(=O)c2cc(N3CCOCC3)c(Cl)cc21`, it took 255 µg/mL (≈ 653 µM) to inhibit growth (MIC).
`CCn1cc(-c2csc(N)n2)c(=O)c2cc(F)c(N3CCCCC3)cc21` had an MIC of 42.7 µg/mL (≈ 115 µM).
The same measure, in the same setting: in the case of `CCn1cc(-c2csc(N)n2)c(=O)c2cc(F)c(N3CCCC3)cc21` it was 53.3 µg/mL (≈ 149 µM).

The test system of the next assay is Pseudomonas aeruginosa. Kind of assay: Antibacterial activity against Pseudomonas aeruginosa ATCC 9027 after 18 to 24 hrs. The format is functional.
Details: not given
Regarding `CCn1cc(C(C)=O)c(=O)c2cc(N3CCCCC3)c(Cl)cc21`, the MIC came out at 42.7 µg/mL (≈ 128 µM).
Same read-out and setting: next, `CCn1cc(C(C)=O)c(=O)c2cc(F)c(N3CCN(C(=O)OC(C)(C)C)CC3)cc21`: “inactive”.
Same read-out and setting: in the case of `CCn1cc(-c2csc(N)n2)c(=O)c2cc(N3CCN(C(=O)OC(C)(C)C)CC3)c(Cl)cc21` it was 8 µg/mL (≈ 16.3 µM).
The compound `CCn1cc(-c2csc(N)n2)c(=O)c2cc(N3CCOCC3)c(Cl)cc21` had an MIC of 170 µg/mL (≈ 435 µM).
The compound `CCn1cc(-c2csc(N)n2)c(=O)c2cc(F)c(N3CCCCC3)cc21` returned an MIC of 42.7 µg/mL (≈ 115 µM).
With `CCn1cc(-c2csc(N)n2)c(=O)c2cc(F)c(N3CCCC3)cc21`, the minimal inhibitory concentration (MIC) amounted to 42.7 µg/mL (≈ 119 µM).

In the next assay the test system is Escherichia coli. Kind of assay: Antibacterial activity against Escherichia coli ATCC 25922 after 18 to 24 hrs. The format is functional.
Details: not given
The compound `CCn1cc(C(C)=O)c(=O)c2cc(N3CCCCC3)c(Cl)cc21` registered an MIC of 13.3 µg/mL (≈ 40 µM).
Same read-out and setting: next, `CCn1cc(C(C)=O)c(=O)c2cc(F)c(N3CCN(C(=O)OC(C)(C)C)CC3)cc21`: 128 µg/mL (≈ 307 µM); `CCn1cc(-c2csc(N)n2)c(=O)c2cc(N3CCN(C(=O)OC(C)(C)C)CC3)c(Cl)cc21`: 10.7 µg/mL (≈ 21.8 µM).
Same read-out and setting: next, `CCn1cc(-c2csc(N)n2)c(=O)c2cc(N3CCOCC3)c(Cl)cc21`: 128 µg/mL (≈ 327 µM); `CCn1cc(-c2csc(N)n2)c(=O)c2cc(F)c(N3CCCCC3)cc21`: 128 µg/mL (≈ 344 µM); `CCn1cc(-c2csc(N)n2)c(=O)c2cc(F)c(N3CCCC3)cc21`: 9.3 µg/mL (≈ 25.9 µM).

Tested on in the next assay: not listed separately
Kind of assay: (§1) Antibacterial activity against Eberthella typhosa ATCC 14028 after 18 to 24 hrs.
Details: not given
It is filed as functional.
The compound `CCn1cc(C(C)=O)c(=O)c2cc(F)c(N3CCN(C(=O)OC(C)(C)C)CC3)cc21` gave an MIC of 42.7 µg/mL (≈ 102 µM).
Still for that read-out and setting: next, `CCn1cc(-c2csc(N)n2)c(=O)c2cc(N3CCOCC3)c(Cl)cc21`: 95.7 µg/mL (≈ 245 µM).
On the same count and under the same terms, next, `CCn1cc(-c2csc(N)n2)c(=O)c2cc(F)c(N3CCCCC3)cc21`: 74.7 µg/mL (≈ 201 µM); `CCn1cc(-c2csc(N)n2)c(=O)c2cc(F)c(N3CCCC3)cc21`: 42.7 µg/mL (≈ 119 µM).

The test system of the next assay is Eberthella typhosa. The description is as §1.
Details: not given
It is filed as functional.
As to `CCn1cc(C(C)=O)c(=O)c2cc(N3CCCCC3)c(Cl)cc21`, the MIC entry is “inactive”.
`CCn1cc(-c2csc(N)n2)c(=O)c2cc(N3CCN(C(=O)OC(C)(C)C)CC3)c(Cl)cc21`: the MIC result is “inactive”.

The next assay concerns Bacillus. Kind of assay: Antibacterial activity against Bacillus proteus ATCC 13315 after 18 to 24 hrs. It is filed as functional.
Details: not given
Take `CCn1cc(C(C)=O)c(=O)c2cc(N3CCCCC3)c(Cl)cc21`: inhibition of growth (MIC) required 171 µg/mL (≈ 513 µM).
The same measure, in the same setting: in the case of `CCn1cc(C(C)=O)c(=O)c2cc(F)c(N3CCN(C(=O)OC(C)(C)C)CC3)cc21` it was 16 µg/mL (≈ 38.3 µM); in that of `CCn1cc(-c2csc(N)n2)c(=O)c2cc(N3CCN(C(=O)OC(C)(C)C)CC3)c(Cl)cc21`, 32 µg/mL (≈ 65.3 µM).
On the same count and under the same terms, next, `CCn1cc(-c2csc(N)n2)c(=O)c2cc(N3CCOCC3)c(Cl)cc21`: “inactive”.
Still for that read-out and setting: in the case of `CCn1cc(-c2csc(N)n2)c(=O)c2cc(F)c(N3CCCCC3)cc21` it was 37.3 µg/mL (≈ 100 µM).
Take `CCn1cc(-c2csc(N)n2)c(=O)c2cc(F)c(N3CCCC3)cc21`: the MIC was found to be 128 µg/mL (≈ 357 µM).

The values above are taken from ChEMBL document CHEMBL3822423 (J Med Chem, 2016).
